Laboratory results reported in patent US9676789B2, “Aminated derivative of homoharringtonine, preparation method therefor, and application thereof” (HANGZHOU BENSHENG PHARMACEUTICAL CO., LTD., priority 2011, dated 2017).
Values after ≈ are worked out from the molar mass of the structure shown.

Assays:
[1] = tested on: Huh7 (human liver cancer cell); experiment: MTT solid tumor cell growth inhibition, 72 h; assay type: cell-based; settings: Homo sapiens, Huh-7, Huh7, 72 h; for IC50: read-out: IC50; for IC90: read-out: IC90
Experimental: (§1) Human solid tumor cell lines: Hep-2 ([…]), A549 (human lung cancer), CaES-17 (esophageal cancer cell), PC-3 (prostate cancer), CNE (nasopharyngeal carcinoma cell), and SK-OV-3 (ovarian cancer cell), all of which are purchased from China Center For Type Culture Collection; RKO (human colon adenocarcinoma cell), MGC 803 (human gastric cancer cell), MG63 (osteosarcoma) and U87 MG (malignant glioma cell), all of which are purchased from Fuxiang Bio-tech Co. Ltd., Shanghai, China; PANC-1 (pancreatic cancer), Huh7 (human liver cancer cell), Becap37 (human breast cancer cell), and Hela (human cervical cancer cell), all of which are donated by Cancer Research Institute of Zhejiang University, China.
(§2) Obtaining 4000 well-growing human solid tumor cells and inoculating them into wells of a 96-well cell culture plate. The culture medium is DMEM High Glucose cell culture medium containing 10% fetal bovine serum. The plate is placed in a carbon dioxide cell incubator (5% CO2) at 37° C. and incubating for 24 hours. After adding the homoharringtonine derivatives of different concentration and mixing uniformly, the plate is placed in a carbon dioxide cell incubator (5% CO2) at 37° C. and incubating for 72 hours. Then the viable cell concentration is determined by the MTT method and the cell viability (%) after drug treatment is calculated. In this experiment, the cell viability of control group (not treated with any compound) is set as 100%.

[2] = tested on: A549 (human lung cancer); experiment: MTT solid tumor cell growth inhibition, 72 h; assay type: cell-based; settings: Homo sapiens, A549, 72 h; for IC50: read-out: IC50; for IC90: read-out: IC90
Experimental: as §1, §2

[3] = tested on: MGC 803 (human gastric cancer cell); experiment: MTT solid tumor cell growth inhibition, 72 h; assay type: cell-based; settings: Homo sapiens, MGC 803, 72 h; for IC50: read-out: IC50; for IC90: read-out: IC90
Experimental: as §1, §2

[4] = tested on: RKO (human colon adenocarcinoma cell); experiment: MTT solid tumor cell growth inhibition, 72 h; assay type: cell-based; settings: Homo sapiens; for IC50: read-out: IC50; for IC90: read-out: IC90
Experimental: as §1, §2

[5] = tested on: Becap37 (human breast cancer cell); experiment: MTT solid tumor cell growth inhibition, 72 h; assay type: cell-based; settings: Homo sapiens, Becap37, 72 h; for IC50: read-out: IC50; for IC90: read-out: IC90
Experimental: as §1, §2

[6] = tested on: MG63 (osteosarcoma); experiment: MTT solid tumor cell growth inhibition, 72 h; assay type: cell-based, human; settings: Homo sapiens, MG 63, 72 h; for IC50: read-out: IC50; for IC90: read-out: IC90
Experimental: as §1, §2

[7] = tested on: PANC-1 (pancreatic cancer); experiment: MTT solid tumor cell growth inhibition, 72 h; assay type: cell-based, human; settings: Homo sapiens, PANC-1, 72 h; for IC50: read-out: IC50; for IC90: read-out: IC90
Experimental: as §1, §2

[8] = tested on: Kasumi-1 (acute myeloid leukemia M2 type, AML-M2); experiment: MTT leukemia cell growth inhibition, 72 h; assay type: cell-based, human; settings: Homo sapiens, Kasumi-1, 72 h; for IC50: read-out: IC50; for IC90: read-out: IC90
Text: (§3) Leukemia cell lines: K562/adr (drug-resistant, chronic myeloid leukemia, CML), NB4 (acute promyelocytic leukemia, AML), Kasumi-1 (acute myeloid leukemia M2 type, AML-M2), Jurkat (acute lymphoblastic leukemia, ALL), all of which are donated by Cancer Research Institute of Zhejiang University, China; and H9 (acute lymphoblastic leukemia, ALL), which is purchased from China Center for Type Culture Collection.
(§4) Obtaining 6000 well-growing leukemia cells and inoculating them into wells of a 96-well cell culture plate. The culture medium is the 1640 cell culture medium containing 10% fetal bovine serum. After adding the homoharringtonine derivatives of different concentrations and mixing uniformly, placing the plate in a carbon dioxide cell incubator (5% CO2) at 37° C. and incubating for 72 hours. Then the viable cell concentration is determined by the MTT method. In this experiment, the cell viability in control group (not treated with any compound) is set as 100%.

[9] = tested on: K562/adr (drug-resistant, chronic myeloid leukemia, CML); experiment: MTT leukemia cell growth inhibition, 72 h; assay type: cell-based, human; settings: Homo sapiens, K562/Adr; for IC50: read-out: IC50; for IC90: read-out: IC90
Text: as §3, §4

[10] = tested on: Jurkat (acute lymphoblastic leukemia, ALL); experiment: MTT leukemia cell growth inhibition, 72 h; assay type: cell-based, human; settings: Homo sapiens; for IC50: read-out: IC50; for IC90: read-out: IC90
Text: as §3, §4

[11] = tested on: H9 (acute lymphoblastic leukemia, ALL); experiment: MTT leukemia cell growth inhibition, 72 h; assay type: cell-based, human; settings: Homo sapiens, H9, 72 h; for IC50: read-out: IC50; for IC90: read-out: IC90
Text: as §3, §4

[12] = tested on: NB4 (acute promyelocytic leukemia, AML); experiment: MTT leukemia cell growth inhibition, 72 h; assay type: cell-based, human; settings: Homo sapiens, NB4, 72 h; for IC50: read-out: IC50; for IC90: read-out: IC90
Text: as §3, §4

[13] = tested on: RPMI8226 (multiple myeloma); experiment: MTT multiple myeloma cell growth inhibition, 72 h; assay type: cell-based, human; settings: Homo sapiens, RPMI-8226, RPMI8226, 72 h; for IC50: read-out: IC50; for IC90: read-out: IC90
Experimental: Multiple myeloma and lymphoma cell lines: RPMI8226 (multiple myeloma), purchased from Fuxiang Bio-tech Co. Ltd., Shanghai, China.
Obtaining 6000 well-growing leukemia cells and inoculating them into wells of a 96-well cell culture plate. The culture medium is the 1640 cell culture medium containing 10% fetal bovine serum. After adding the homoharringtonine derivatives of different concentrations and mixing uniformly, placing the plate in a carbon dioxide cell incubator (5% CO2) at 37° C. and incubating for 72 hours. Then the viable cell concentration is determined by the MTT method.

[14] = tested on: U87 MG (malignant glioma cell); experiment: MTT solid tumor cell growth inhibition, 72 h; assay type: cell-based, human; settings: Homo sapiens, U-87 MG
Experimental: as §1, §2

SMILES | IC50 [1] | IC90 [1] | IC50 [2] | IC90 [2] | IC50 [3] | IC90 [3] | IC50 [4] | IC90 [4] | IC50 [5] | IC90 [5] | IC50 [6] | IC90 [6] | IC50 [7] | IC90 [7] | IC50 [8] | IC90 [8] | IC50 [9] | IC90 [9] | IC50 [10] | IC90 [10] | also measured
COC1=C[C@]23CCCN2CCc2cc4c(cc2[C@@H]3[C@@H]1OC(=O)[C@@](O)(CCCC(C)(C)O)CC(=O)N1CCN(CCO)CC1)OCO4 [BS-HH-020] | > 16 µg/mL | > 16 µg/mL | > 16 µg/mL | > 16 µg/mL | 7.5 µg/mL (≈ 11.6 µM) | > 16 µg/mL | 8.38 µg/mL (≈ 13 µM) | > 16 µg/mL | > 16 µg/mL | > 16 µg/mL | 14.1 µg/mL (≈ 22 µM) | > 16 µg/mL | > 16 µg/mL | > 16 µg/mL | > 16 µg/mL | > 16 µg/mL | > 16 µg/mL | > 16 µg/mL | 15.1 µg/mL (≈ 23.5 µM) | > 16 µg/mL | IC50 [11]: > 16 µg/mL; IC90 [11]: > 16 µg/mL; IC50 [12]: 7.46 µg/mL (≈ 11.6 µM); IC90 [12]: 15.8 µg/mL (≈ 24.5 µM); IC50 [13]: 16 µg/mL (≈ 24.9 µM); IC90 [13]: > 16 µg/mL
COC1=C[C@]23CCCN2CCc2cc4c(cc2[C@@H]3[C@@H]1OC(=O)[C@@](O)(CCCC(C)(C)O)CC(=O)N1CCC(O)CC1)OCO4 [BS-HH-021] | > 16 µg/mL | > 16 µg/mL | > 16 µg/mL | > 16 µg/mL | > 16 µg/mL | > 16 µg/mL | 8.51 µg/mL (≈ 13.8 µM) | > 16 µg/mL | > 16 µg/mL | > 16 µg/mL | > 16 µg/mL | > 16 µg/mL | > 16 µg/mL | > 16 µg/mL | 14.6 µg/mL (≈ 23.7 µM) | > 16 µg/mL | > 16 µg/mL | > 16 µg/mL | 13.4 µg/mL (≈ 21.8 µM) | > 16 µg/mL | IC50 [11]: > 16 µg/mL; IC90 [11]: > 16 µg/mL; IC50 [12]: 8 µg/mL (≈ 13 µM); IC90 [12]: 16 µg/mL (≈ 26 µM); IC50 [13]: 16 µg/mL (≈ 26 µM); IC90 [13]: > 16 µg/mL
COC1=C[C@]23CCCN2CCc2cc4c(cc2[C@@H]3[C@@H]1OC(=O)[C@@](O)(CCCC(C)(C)O)CC(=O)N1CCCC(O)C1)OCO4 (stereo partly shown) [BS-HH-025] | > 16 µg/mL | > 16 µg/mL | > 16 µg/mL | > 16 µg/mL | > 16 µg/mL | > 16 µg/mL | 15.3 µg/mL (≈ 25 µM) | > 16 µg/mL | > 16 µg/mL | > 16 µg/mL | > 16 µg/mL | > 16 µg/mL | > 16 µg/mL | > 16 µg/mL | > 16 µg/mL | > 16 µg/mL | > 16 µg/mL | > 16 µg/mL | > 16 µg/mL | > 16 µg/mL | IC50 [11]: > 16 µg/mL; IC90 [11]: > 16 µg/mL; IC50 [12]: 8.31 µg/mL (≈ 13.5 µM); IC90 [12]: > 16 µg/mL; IC50 [13]: > 16 µg/mL; IC90 [13]: > 16 µg/mL
COC1=C[C@]23CCCN2CCc2cc4c(cc2[C@@H]3[C@@H]1OC(=O)[C@@](O)(CCCC(C)(C)O)CC(=O)NCc1cccs1)OCO4 [BS-HH-055] | 4.83 µg/mL (≈ 7.71 µM) | > 16 µg/mL | 11.2 µg/mL (≈ 17.9 µM) | > 16 µg/mL | 6.06 µg/mL (≈ 9.67 µM) | 19 µg/mL (≈ 30.3 µM) | 2.75 µg/mL (≈ 4.39 µM) | 6.97 µg/mL (≈ 11.1 µM) | 5.9 µg/mL (≈ 9.41 µM) | > 16 µg/mL | 3.83 µg/mL (≈ 6.11 µM) | 16 µg/mL (≈ 25.5 µM) | 8 µg/mL (≈ 12.8 µM) | > 16 µg/mL | 1.3 µg/mL (≈ 2.07 µM) | 6.68 µg/mL (≈ 10.7 µM) | 6.24 µg/mL (≈ 9.96 µM) | 16 µg/mL (≈ 25.5 µM) | 1.58 µg/mL (≈ 2.52 µM) | 8 µg/mL (≈ 12.8 µM) | IC50 ([14]; read-out: IC50): 6.54 µg/mL (≈ 10.4 µM); IC90 ([14]; read-out: IC90): > 16 µg/mL; IC50 [11]: 4 µg/mL (≈ 6.38 µM); IC90 [11]: 10.6 µg/mL (≈ 17 µM); IC50 [12]: 2.38 µg/mL (≈ 3.8 µM); IC90 [12]: 7.61 µg/mL (≈ 12.1 µM); IC50 [13]: 2.1 µg/mL (≈ 3.35 µM); IC90 [13]: 16 µg/mL (≈ 25.5 µM)
